# Laboratory results: patent US20240059703A1 (AMGEN INC., priority 2021, published 2024)
# What was measured:
# KRAS G12C = KRAS G12C (Homo sapiens (Human), UniProt P01116, C118A/G12C); experiment: 2 h coupled exchange assay; format: biochemical; conditions: Avg 2 h Coupled exchange IC50, 2 h compound pre-incubation
# Procedure: The term “2 h coupled exchange assay” or “20 h coupled exchange assay” as used herein refers to the assay described in the Section entitled “BIOLOGICAL EVALUATION.”
# [1] = tested on: MIA PaCa-2 (human pancreatic carcinoma) cells; experiment: Cell Viability Assay (CellTiter-Glo), MIA PaCa-2; format: cell-based; conditions: Homo sapiens, MIA PaCa-2, 72 h
# Procedure: Serially-diluted compound or DMSO was added to the cells, and plates were incubated at 37° C., 5% CO2 for 72 h. Cell viability was measured using a CellTiter-Glo® Luminescent Cell Viability Assay kit (Promega) according to the manufacturer's protocol. The luminescence signal of treated samples was normalized to DMSO control, and data were analyzed using a 4-parameter logistic model to calculate IC50 values.
# [2] = tested on: A549 (human lung carcinoma) cells; experiment: Cell Viability Assay (CellTiter-Glo), A549; format: cell-based; conditions: Homo sapiens, A549, 72 h
# How it was run: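 Luminescent ATP read-out (CellTiter-Glo) after 72 h compound treatment of cells seeded overnight at 1.67E+04 cells/mL in RPMI 1640, 10% FBS; signal relative to DMSO, IC50 by 4-parameter logistic model.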
# Sequence of KRAS G12C (P01116 other isoform, or with tags, fused parts or gaps G12C/C118A): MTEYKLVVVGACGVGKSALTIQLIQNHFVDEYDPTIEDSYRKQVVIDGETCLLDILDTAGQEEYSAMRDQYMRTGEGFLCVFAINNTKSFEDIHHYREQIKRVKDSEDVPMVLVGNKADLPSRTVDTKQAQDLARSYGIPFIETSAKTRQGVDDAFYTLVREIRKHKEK
Compound,IC50 (KRAS G12C) [nM],IC50 [1] [nM],IC50 [2] [nM]
"C=CC(=O)N1CC2(CCN(c3nc4cc(-c5nccn5C)ccc4c(-c4ccccc4Cl)c3C#N)C2)C1 [Example 15-7, 4-(2-chlorophenyl)-7-(1-methyl-1H-imidazol-2-yl)-2-(2-(2-propenoyl)-2,6-diazaspiro[3.4]octan-6-yl)-3-quinolinecarbonitrile]",115,966,4140
"C=CC(=O)N1CC2(CCN(c3nc4cc(-c5ccnn5C)ccc4c(-c4ccccc4Cl)c3C)C2)C1 [Example 16-1, 1-(6-(4-(2-chlorophenyl)-3-methyl-7-(1-methyl-1H-pyrazol-5-yl)quinolin-2-yl)-2,6-diazaspiro[3.4]octan-2-yl)prop-2-en-1-one]",280,> 5000,> 5000
"C=CC(=O)N1CC2(C1)CN(c1nc3cc(-c4ccnn4C)ccc3c(-c3ccccc3Cl)c1C#N)CC2(F)F [Example 17-2, 4-(2-chlorophenyl)-2-(8,8-difluoro-2-(2-propenoyl)-2,6-diazaspiro[3.4]octan-6-yl)-7-(1-methyl-1H-pyrazol-5-yl)-3-quinolinecarbonitrile]",98,1880,3020
"C=CC(=O)N1CC2(CCN(c3nc4cc(-n5cncc5C)ccc4c(-c4ccccc4F)c3C#N)C2)C1 [Example 17-6, 4-(2-fluorophenyl)-7-(5-methyl-1H-imidazol-1-yl)-2-(2-(2-propenoyl)-2,6-diazaspiro[3.4]octan-6-yl)-3-quinolinecarbonitrile]",149,2190,4370
"C=CC(=O)N1CC2(CCN(c3nc4cc(-n5cncc5C)ccc4c(-c4ccccc4Cl)c3C#N)C2)C1 [Example 17-7, 4-(2-chlorophenyl)-7-(5-methyl-1H-imidazol-1-yl)-2-(2-(2-propenoyl)-2,6-diazaspiro[3.4]octan-6-yl)-3-quinolinecarbonitrile]",126,1800,3100
"C=CC(=O)N1CC2(CCN(c3nc4c(c(-c5c(C)ccc6[nH]ncc56)c3C)CCN(C(C)C)C4)C2)C1 [Example 18-2, 1-(6-(3-methyl-4-(5-methyl-1H-indazol-4-yl)-7-(2-propanyl)-5,6,7,8-tetrahydro-1,7-naphthyridin-2-yl)-2,6-diazaspiro[3.4]octan-2-yl)-2-propen-1-one]",268,93,> 5000
"C=CC(=O)N1CC2(CCN(c3nc4c(c(-c5cc(O)cc6ccccc56)c3C)CCN(C(C)C)C4)C2)C1 [Example 18-3, 1-(6-(4-(3-hydroxy-1-naphthalenyl)-3-methyl-7-(2-propanyl)-5,6,7,8-tetrahydro-1,7-naphthyridin-2-yl)-2,6-diazaspiro[3.4]octan-2-yl)-2-propen-1-one]",229,137,> 5000
"C=CC(=O)N1CC2(CCN(c3nc4c(c(-c5cccc6c5NCCC6)c3C)CCN(C(C)C)C4)C2)C1 [Example 18-5, 1-(6-(3-methyl-7-(2-propanyl)-4-(1,2,3,4-tetrahydro-8-quinolinyl)-5,6,7,8-tetrahydro-1,7-naphthyridin-2-yl)-2,6-diazaspiro[3.4]octan-2-yl)-2-propen-1-one]",990,546,15300
"C=CC(=O)N1CC2(CCN(c3nc4c(c(-c5cccc6cc(O)ccc56)c3C)CCN(C)C4)C2)C1 [Example 18-6, 1-(6-(4-(6-hydroxy-1-naphthalenyl)-3,7-dimethyl-5,6,7,8-tetrahydro-1,7-naphthyridin-2-yl)-2,6-diazaspiro[3.4]octan-2-yl)-2-propen-1-one]",80,70,> 5000
"C=CC(=O)N1CC2(CCN(c3nc4c(c(-c5cccc6cc(O)ccc56)c3C)CCN(C3COC3)C4)C2)C1 [Example 18-7, 1-(6-(4-(6-hydroxy-1-naphthalenyl)-3-methyl-7-(3-oxetanyl)-5,6,7,8-tetrahydro-1,7-naphthyridin-2-yl)-2,6-diazaspiro[3.4]octan-2-yl)-2-propen-1-one]",71,64,> 5000

# The next lines start with the values.
IC50 (KRAS G12C) [nM],IC50 [1] [nM],IC50 [2] [nM],Compound
31,144,3310,"C=CC(=O)N1CC2(CCN(c3nc4cc(-c5ccnn5C)ccc4c(-c4c(C)ccc5[nH]ncc45)c3C#N)C2)C1 [Example 15-1, 4-(5-methyl-1H-indazol-4-yl)-7-(1-methyl-1H-pyrazol-5-yl)-2-(2-(2-propenoyl)-2,6-diazaspiro[3.4]octan-6-yl)-3-quinolinecarbonitrile]"
62,1120,> 5000,"C=CC(=O)N1CC2(CCN(c3nc4cc(-c5scnc5C)ccc4c(-c4c(C)ccc5[nH]ncc45)c3C)C2)C1 [Example 15-3, 1-(6-(3-methyl-4-(5-methyl-1H-indazol-4-yl)-7-(4-methyl-1,3-thiazol-5-yl)-2-quinolinyl)-2,6-diazaspiro[3.4]octan-2-yl)-2-propen-1-one]"
60,1330,> 5000,"C=CC(=O)N1CC2(CCN(c3nc4cc(-c5ccnn5C)ccc4c(-c4cc(O)ccc4Cl)c3C)C2)C1 [Example 16-9, 1-(6-(4-(2-chloro-5-hydroxyphenyl)-3-methyl-7-(1-methyl-1H-pyrazol-5-yl)-2-quinolinyl)-2,6-diazaspiro[3.4]octan-2-yl)-2-propen-1-one]"
36,684,1880,"C=CC(=O)N1CC2(CCN(c3nc4cc(-n5ccnc5C)ccc4c(-c4ccccc4Cl)c3C#N)C2)C1 [Example 17-3, 4-(2-chlorophenyl)-7-(2-methyl-1H-imidazol-1-yl)-2-(2-(2-propenoyl)-2,6-diazaspiro[3.4]octan-6-yl)-3-quinolinecarbonitrile]"
70,1270,4430,"C=CC(=O)N1CC2(CCN(c3nc4cc(-n5ccnc5C)ccc4c(-c4ccccc4F)c3C#N)C2)C1 [Example 17-5, 4-(2-fluorophenyl)-7-(2-methyl-1H-imidazol-1-yl)-2-(2-(2-propenoyl)-2,6-diazaspiro[3.4]octan-6-yl)-3-quinolinecarbonitrile]"
37,23,> 5000,"C=CC(=O)N1CC2(CCN(c3nc4c(c(-c5cccc6cc(O)ccc56)c3C)CCN(C(C)C)C4)C2)C1 [Example 18-1, 1-(6-(4-(6-Hydroxy-1-naphthalenyl)-3-methyl-7-(2-propanyl)-5,6,7,8-tetrahydro-1,7-naphthyridin-2-yl)-2,6-diazaspiro[3.4]octan-2-yl)-2-propen-1-one]"
47,170,> 5000,"C=CC(=O)N1CC2(CCN(c3nc4c(c(-c5cccc6cc(O)ccc56)c3C)CCN(C(C)COC)C4)C2)C1 [Example 18-8, 1-(6-(4-(6-hydroxy-1-naphthalenyl)-7-((2R)-1-methoxy-2-propanyl)-3-methyl-5,6,7,8-tetrahydro-1,7-naphthyridin-2-yl)-2,6-diazaspiro[3.4]octan-2-yl)-2-propen-1-one|1-(6-(4-(6-hydroxy-1-naphthalenyl)-7-((2S)-1-methoxy-2-propanyl)-3-methyl-5,6,7,8-tetrahydro-1,7-naphthyridin-2-yl)-2,6-diazaspiro[3.4]octan-2-yl)-2-propen-1-one]"
